# Bridge positions count the residues as written; N and C are the ends. Square brackets hold non-standard residues; d marks the D form. Peptide text beside a SMILES is read from it. * marks the point of attachment. ξ: configuration not given here. Bip = N[C@@H](Cc1ccc(-c2ccccc2)cc1)C(=O)O; Phe(3-Me) = Cc1cccc(C[C@H](N)C(=O)O)c1; 2Pal = N[C@@H](Cc1ccccn1)C(=O)O; 3Pal = N[C@@H](Cc1cccnc1)C(=O)O; 4Pal = N[C@@H](Cc1ccncc1)C(=O)O; d2Pal = N[C@H](Cc1ccccn1)C(=O)O; Cha = N[C@@H](CC1CCCCC1)C(=O)O; Cit = NC(=O)NCCC[C@H](N)C(=O)O; Phg = N[C@H](C(=O)O)c1ccccc1; hCys = N[C@@H](CCS)C(=O)O; Carboxymethyl = O=C(O)C*; Orn = NCCC[C@H](N)C(=O)O; Aun = NCCCCCCCCCCC(=O)O; Dab = NCC[C@H](N)C(=O)O; Dap = NC[C@H](N)C(=O)O; ξT = CC(O)C(N)C(=O)O
# Target: T1, PD-1/PD-L1 interaction (PE-labeled human PD-L1-Ig binding to Jurkat cell line over-expressing human PD-1) (Homo sapiens, UniProt Q15116)
# T1 construct: expressed in transfected cells; host or cells: Jurkat
# T1 sequence (Q15116 25-288): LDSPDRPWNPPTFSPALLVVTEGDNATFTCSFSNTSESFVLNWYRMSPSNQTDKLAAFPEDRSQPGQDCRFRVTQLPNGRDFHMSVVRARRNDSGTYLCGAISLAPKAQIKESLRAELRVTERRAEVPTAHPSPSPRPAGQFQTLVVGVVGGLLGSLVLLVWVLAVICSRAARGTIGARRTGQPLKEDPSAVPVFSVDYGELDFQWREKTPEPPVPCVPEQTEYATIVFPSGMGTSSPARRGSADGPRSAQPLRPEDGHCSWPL
# Assay: Jurkat-PD-1 Cell Binding High-Content Screening Assay (CBA)
# Format: cell-based
# Details: Jurkat cell line over-expressing human PD-1; PE-labeled PD-L1-Ig 20 nM final; read-out: Jurkat hPD1-PDL1 IC50
# Method in brief: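 Jurkat cells stably over-expressing human PD-1 were seeded in DMEM with 10% fetal calf serum and pre-incubated with compound for 2 h at 37° C. PE-labeled human PD-L1-Ig was then added at 20 nM final for 1 hour, after which cells were fixed with paraformaldehyde, Hoechst-stained and imaged by high-content microscopy.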
row,Compound,IC50
1,Cc1cccc(C[C@@H]2NC(=O)[C@H](CC(=O)O)NC(=O)[C@H](Cc3ccc(OCC(=O)O)cc3)NC(=O)[C@H](CN)NC(=O)CSC[C@@H](C(=O)N[C@@H](CCN)C(=O)NCCCCCCCCCCC(=O)O)NC(=O)[C@@H](Cc3ccccn3)NC(=O)[C@H](C(C)C)NC(=O)[C@H](CC3CCCCC3)NC(=O)[C@H](CCN)NC(=O)[C@@H](CC(C)C)NC(=O)[C@H](CCCN)NC(=O)[C@H](Cc3ccc(O)cc3)NC(=O)[C@H](Cc3ccc(-c4ccccc4)cc3)NC(=O)[C@H](C(C)C)NC2=O)c1 [Compound 2764] ({CH2CO}-[Dap]Y(Carboxymethyl)D[Phe(3-Me)]V[Bip]Y[Orn][dL][Dab][Cha]V[d2Pal]C[Dab][Aun]-OH; thioether N-14),68.9 nM
2,Cc1cccc(C[C@@H]2NC(=O)[C@H](CC(=O)O)NC(=O)[C@H](Cc3ccc(OCC(=O)O)cc3)NC(=O)[C@H](CN)NC(=O)CSC[C@@H](C(=O)N[C@@H](CCN)C(=O)NCCCCCCCCCCC(=O)O)NC(=O)[C@H](Cc3cccnc3)NC(=O)[C@H](C(C)C)NC(=O)[C@H](CC(C)C)NC(=O)[C@H](CCN)NC(=O)[C@@H](CC(C)C)NC(=O)[C@H](CCCN)NC(=O)[C@H](Cc3ccc(O)cc3)NC(=O)[C@H](Cc3ccc(-c4ccccc4)cc3)NC(=O)[C@H](C(C)C)NC2=O)c1 [Compound 2765] ({CH2CO}-[Dap]Y(Carboxymethyl)D[Phe(3-Me)]V[Bip]Y[Orn][dL][Dab]LV[3Pal]C[Dab][Aun]-OH; thioether N-14),62.4 nM
3,Cc1cccc(C[C@@H]2NC(=O)[C@H](CC(=O)O)NC(=O)[C@H](Cc3ccc(OCC(=O)O)cc3)NC(=O)[C@H](CN)NC(=O)CSC[C@@H](C(=O)N[C@@H](CCN)C(=O)NCCCCCCCCCCC(=O)O)NC(=O)[C@@H](CCC(N)=O)NC(=O)[C@H](C(C)C)NC(=O)[C@H](CC3CCCCC3)NC(=O)[C@H](CCN)NC(=O)[C@@H](CC(C)C)NC(=O)[C@H](CCCN)NC(=O)[C@H](Cc3ccc(O)cc3)NC(=O)[C@H](Cc3ccc(-c4ccccc4)cc3)NC(=O)[C@H](CC(C)C)NC2=O)c1 [Compound 2769] ({CH2CO}-[Dap]Y(Carboxymethyl)D[Phe(3-Me)]L[Bip]Y[Orn][dL][Dab][Cha]V[dQ]C[Dab][Aun]-OH; thioether N-14),60.7 nM
4,Cc1cccc(C[C@@H]2NC(=O)[C@H](CC(=O)O)NC(=O)[C@H](Cc3ccc(OCC(=O)O)cc3)NC(=O)[C@H](CN)NC(=O)CSC[C@@H](C(=O)N[C@@H](CCN)C(=O)NCCCCCCCCCCC(=O)O)NC(=O)[C@H](c3ccccc3)NC(=O)[C@H](C(C)C)NC(=O)[C@H](CC(C)C)NC(=O)[C@H](CCN)NC(=O)[C@@H](CC(C)C)NC(=O)[C@H](CCCN)NC(=O)[C@H](Cc3ccc(O)cc3)NC(=O)[C@H](Cc3ccc(-c4ccccc4)cc3)NC(=O)[C@H](C(C)C)NC2=O)c1 [Compound 2772] ({CH2CO}-[Dap]Y(Carboxymethyl)D[Phe(3-Me)]V[Bip]Y[Orn][dL][Dab]LV[Phg]C[Dab][Aun]-OH; thioether N-14),67.7 nM
5,Cc1cccc(C[C@@H]2NC(=O)[C@H](CC(=O)O)NC(=O)[C@H](Cc3ccc(O)cc3)NC(=O)[C@H](CC(N)=O)NC(=O)CSC[C@@H](C(=O)N[C@@H](CCCN)C(=O)NCCCCCCCCCCC(=O)O)NC(=O)C(C(C)O)NC(=O)[C@H](C(C)C)NC(=O)[C@H](CC(C)C)NC(=O)[C@H](CCN)NC(=O)[C@@H](CC(C)C)NC(=O)[C@H](CCCN)NC(=O)[C@H](CCCNC(N)=O)NC(=O)[C@H](Cc3ccc(-c4ccccc4)cc3)NC(=O)[C@H](C(C)C)NC2=O)c1 (stereo partly drawn) [Compound 2774] ({CH2CO}-NYD[Phe(3-Me)]V[Bip][Cit][Orn][dL][Dab]LV[ξT]C[Orn][Aun]-OH; thioether N-14),71.9 nM
6,Cc1cccc(C[C@@H]2NC(=O)[C@H](CC(=O)O)NC(=O)[C@H](Cc3ccccc3)NC(=O)[C@H](CC(N)=O)NC(=O)CSCC[C@@H](C(=O)N[C@@H](CCCN)C(=O)NCCCCCCCCCCC(=O)O)NC(=O)[C@H](CCC(=O)O)NC(=O)[C@H](C(C)C)NC(=O)[C@H](CC(C)C)NC(=O)[C@H](CCN)NC(=O)[C@@H](CC(C)C)NC(=O)[C@H](CCCN)NC(=O)[C@H](CCCNC(N)=O)NC(=O)[C@H](Cc3ccc(-c4ccccc4)cc3)NC(=O)[C@H](C(C)C)NC2=O)c1 [Compound 2775] ({CH2CO}-NFD[Phe(3-Me)]V[Bip][Cit][Orn][dL][Dab]LVE[hCys][Orn][Aun]-OH; thioether N-14),173 nM

# The next molecules have a lower IC50 than those just listed; values first:
row,IC50,Compound
1,55.9 nM,Cc1cccc(C[C@@H]2NC(=O)[C@H](CC(=O)O)NC(=O)[C@H](Cc3ccc(OCC(=O)O)cc3)NC(=O)[C@H](CN)NC(=O)CSC[C@@H](C(=O)N[C@@H](CCN)C(=O)NCCCCCCCCCCC(=O)O)NC(=O)[C@H](Cc3cccnc3)NC(=O)[C@H](C(C)C)NC(=O)[C@H](CC3CCCCC3)NC(=O)[C@H](CCN)NC(=O)[C@@H](CC(C)C)NC(=O)[C@H](CCCN)NC(=O)[C@H](Cc3ccc(O)cc3)NC(=O)[C@H](Cc3ccc(-c4ccccc4)cc3)NC(=O)[C@H](C(C)C)NC2=O)c1 [Compound 2766] ({CH2CO}-[Dap]Y(Carboxymethyl)D[Phe(3-Me)]V[Bip]Y[Orn][dL][Dab][Cha]V[3Pal]C[Dab][Aun]-OH; thioether N-14)
2,55.2 nM,Cc1cccc(C[C@@H]2NC(=O)[C@H](CC(=O)O)NC(=O)[C@H](Cc3ccc(OCC(=O)O)cc3)NC(=O)[C@H](CN)NC(=O)CSC[C@@H](C(=O)N[C@@H](CCN)C(=O)NCCCCCCCCCCC(=O)O)NC(=O)[C@H](Cc3ccncc3)NC(=O)[C@H](C(C)C)NC(=O)[C@H](CC3CCCCC3)NC(=O)[C@H](CCN)NC(=O)[C@@H](CC(C)C)NC(=O)[C@H](CCCN)NC(=O)[C@H](Cc3ccc(O)cc3)NC(=O)[C@H](Cc3ccc(-c4ccccc4)cc3)NC(=O)[C@H](C(C)C)NC2=O)c1 [Compound 2768] ({CH2CO}-[Dap]Y(Carboxymethyl)D[Phe(3-Me)]V[Bip]Y[Orn][dL][Dab][Cha]V[4Pal]C[Dab][Aun]-OH; thioether N-14)
3,54.9 nM,Cc1cccc(C[C@@H]2NC(=O)[C@H](CC(=O)O)NC(=O)[C@H](Cc3ccc(OCC(=O)O)cc3)NC(=O)[C@H](CN)NC(=O)CSC[C@@H](C(=O)N[C@@H](CCN)C(=O)NCCCCCCCCCCC(=O)O)NC(=O)[C@H](Cc3ccccn3)NC(=O)[C@H](C(C)C)NC(=O)[C@H](CC(C)C)NC(=O)[C@H](CCN)NC(=O)[C@@H](CC(C)C)NC(=O)[C@H](CCCN)NC(=O)[C@H](Cc3ccc(O)cc3)NC(=O)[C@H](Cc3ccc(-c4ccccc4)cc3)NC(=O)[C@H](C(C)C)NC2=O)c1 [Compound 2763] ({CH2CO}-[Dap]Y(Carboxymethyl)D[Phe(3-Me)]V[Bip]Y[Orn][dL][Dab]LV[2Pal]C[Dab][Aun]-OH; thioether N-14)
4,54.1 nM,CC(C)C[C@H]1NC(=O)[C@H](CCCN)NC(=O)[C@H](C(C)C)NC(=O)[C@H](Cc2ccc(-c3ccccc3)cc2)NC(=O)[C@H](C(C)C)NC(=O)[C@H](Cc2c[nH]c3ccccc23)NC(=O)[C@H](CC(=O)O)NC(=O)[C@H](Cc2ccc(OCC(=O)O)cc2)NC(=O)[C@H](CN)NC(=O)CSC[C@@H](C(=O)N[C@@H](CCCN)C(=O)NCCCCCCCCCCC(=O)O)NC(=O)[C@H](CCC(=O)O)NC(=O)[C@H](C(C)C)NC(=O)[C@H](CC2CCCCC2)NC(=O)[C@H](Cc2c[nH]cn2)NC1=O [Compound 2776] ({CH2CO}-[Dap]Y(Carboxymethyl)DWV[Bip]V[Orn][dL]H[Cha]VEC[Orn][Aun]-OH; thioether N-14)
5,42.7 nM,Cc1cccc(C[C@@H]2NC(=O)[C@H](CC(=O)O)NC(=O)[C@H](Cc3ccc(OCC(=O)O)cc3)NC(=O)[C@H](CN)NC(=O)CSC[C@@H](C(=O)N[C@@H](CCN)C(=O)NCCCCCCCCCCC(=O)O)NC(=O)[C@H](Cc3ccncc3)NC(=O)[C@H](C(C)C)NC(=O)[C@H](CC(C)C)NC(=O)[C@H](CCN)NC(=O)[C@@H](CC(C)C)NC(=O)[C@H](CCCN)NC(=O)[C@H](Cc3ccc(O)cc3)NC(=O)[C@H](Cc3ccc(-c4ccccc4)cc3)NC(=O)[C@H](C(C)C)NC2=O)c1 [Compound 2767] ({CH2CO}-[Dap]Y(Carboxymethyl)D[Phe(3-Me)]V[Bip]Y[Orn][dL][Dab]LV[4Pal]C[Dab][Aun]-OH; thioether N-14)
6,39.5 nM,Cc1cccc(C[C@@H]2NC(=O)[C@H](CC(=O)O)NC(=O)[C@H](Cc3ccc(OCC(=O)O)cc3)NC(=O)[C@H](CN)NC(=O)CSC[C@@H](C(=O)N[C@@H](CCN)C(=O)NCCCCCCCCCCC(=O)O)NC(=O)[C@@H]([C@H](C)O)NC(=O)[C@H](C(C)C)NC(=O)[C@H](CC(C)C)NC(=O)[C@H](CCN)NC(=O)[C@@H](CC(C)C)NC(=O)[C@H](CCCN)NC(=O)[C@H](Cc3ccc(O)cc3)NC(=O)[C@H](Cc3ccc(-c4ccccc4)cc3)NC(=O)[C@H](C(C)C)NC2=O)c1 [Compound 2771] ({CH2CO}-[Dap]Y(Carboxymethyl)D[Phe(3-Me)]V[Bip]Y[Orn][dL][Dab]LV[dT]C[Dab][Aun]-OH; thioether N-14)
7,37.8 nM,Cc1cccc(C[C@@H]2NC(=O)[C@H](CC(=O)O)NC(=O)[C@H](Cc3ccc(OCC(=O)O)cc3)NC(=O)[C@H](CN)NC(=O)CSC[C@@H](C(=O)N[C@@H](CCN)C(=O)NCCCCCCCCCCC(=O)O)NC(=O)[C@@H](CCC(N)=O)NC(=O)[C@H](C(C)C)NC(=O)[C@H](CC(C)C)NC(=O)[C@H](CCN)NC(=O)[C@@H](CC(C)C)NC(=O)[C@H](CCCN)NC(=O)[C@H](Cc3ccc(O)cc3)NC(=O)[C@H](Cc3ccc(-c4ccccc4)cc3)NC(=O)[C@H](C(C)C)NC2=O)c1 [Compound 2770] ({CH2CO}-[Dap]Y(Carboxymethyl)D[Phe(3-Me)]V[Bip]Y[Orn][dL][Dab]LV[dQ]C[Dab][Aun]-OH; thioether N-14)
8,22 nM,Cc1cccc(C[C@@H]2NC(=O)[C@H](CC(=O)O)NC(=O)[C@H](Cc3ccc(O)cc3)NC(=O)[C@H](CC(N)=O)NC(=O)CSC[C@@H](C(=O)N[C@@H](CCN)C(=O)NCCCCCCCCCCC(=O)O)NC(=O)[C@H](CCC(=O)O)NC(=O)[C@H](C(C)C)NC(=O)[C@H](CC(C)C)NC(=O)[C@H](CCN)NC(=O)[C@@H](CC(C)C)NC(=O)[C@H](CCCN)NC(=O)[C@H](CCCNC(N)=O)NC(=O)[C@H](Cc3ccc(-c4ccccc4)cc3)NC(=O)[C@H](C(C)C)NC2=O)c1 [Compound 2773] ({CH2CO}-NYD[Phe(3-Me)]V[Bip][Cit][Orn][dL][Dab]LVEC[Dab][Aun]-OH; thioether N-14)

# Source: patent publication US20260022142A1, “MACROCYCLIC IMMUNOMODULATORS” (Bristol-Myers Squibb Company, priority 2022, published 2026)
